# Experiments:
# [1] = test system: INS-1E β-cells; assay: Stimulation of proliferation of INS-1E β-cells (3H-thymidine uptake); type: cell-based; settings: general statement; test with 10 nM rat preptin in INS-1E cells, FIG. 2
# Procedure: INS-1E cells were seeded in 24 well plates at a density of 2×10^5 cells/well. Cells were grown at 37° C. for 24 hours in modified RPMI-1640 (GIBCO R-1383 Lot108H83032; supplemented with 23.8 mM sodium hydrogen carbonate, 2 mM L-glutamine, 10 mM HEPES, 50 μM β-Mercaptoethanol, 1 mM Sodium Pyruvate, 10^5 IU/l penicillin, 0.01% streptomycin sulphate) and 10% fetal calf serum, after which time they were serum starved for 24 hours in modified RPMI-1640. The serum free medium was then replaced with 500 μl of RPMI-1640 containing the following:
# 0% fetal calf serum (negative control), 10% fetal calf serum (positive control), 10 nM of rat preptin (rPreptin 10 nM), 10 nM of human GLP-1 (hGLP-1 10 nM), 10 nM of human IGF-II (hIGF-II 10 nM), and cells were incubated for a further 18 hours before the addition of 5 μCi of ^3H-thymidine to each well. After a further 6 hours incubation, medium was aspirated and cells were washed twice with cold PBS, once with cold 5% TCA, and twice with cold 100% ethanol. Plates were then air-dried for 30 minutes before cells were solubilized with 400 μl of 0.5M NaOH. This alkaline c ell lysate was then neutralized with 400 μl of 0.5M HCl before 500 μl aliquots were mixed with 2 ml of Starscint scintillation fluid, and counted on a scintillation counter. […]
# [2] = test system: insulin secretion; settings: Buchanan et al. (2001) Biochem. J. 360: 431-439; cited from earlier work
# [3] = test system: NIH-3T3 fibroblast cells; assay: Stimulation of proliferation of NIH-3T3 cells (3H-thymidine uptake); type: cell-based; settings: 10, 50, 100 and 500 nM preptin; FIG. 1
# Procedure: NIH-3T3 cells may be used for various purposes including research regarding mitogenicity investigations. See, e.g., Buergisser et al. (1990). BiochemBiophys Res Comm 169(3): 832-839; Burgisser et al. (1991). J Biol. Chem 266(2): 1029-33; Yang et al. (1996). Endocrinol 137(7): 2766-2773; Geddes et al. (2001). Prot Engin 14(1): 61-65. NIH-3T3 cells were seeded in 24 well plates at a density of 3×10^4 cells/well. Cells were grown at 37° C. for 24 hours in high glucose DMEM (supplemented with 30 mM sodium hydrogen carbonate, 2 mM L-glutamine, 10^5 IU/l penicillin, 0.01% streptomycin sulphate) and 10% fetal calf serum, after which time they were serum starved for 24 hours in high DMEM and 0.2% BSA. […] This alkaline cell lysate was then neutralized with 200 μl of 0.2M HCl before 300 μl aliquots were mixed with 2 ml of Starscint scintillation fluid, and counted on a scintillation counter.
# One method of measuring cell proliferation is via the incorporation of labeled nucleotides (e.g., [3H]-thymidine) into- newly synthesized DNA during cell division. For example, one of the most familiar and widely used methods for quantifying cell proliferation is the measurement of tritiated thymidine ([3H]-thymidine) incorporation. […]
substance,measurement,setting,value
"preptin: peptide of 34 amino acids, Formula (I); corresponds to Asp69-Leu102 of proinsulin-like growth factor II (DVSTPPTVLPDNFPRYPVGKFFQYDTWKQSTQRL; Preptin; UniProt P01344 93-126, looked up)",proliferation of pancreatic islet β-cells,[1],stimulate proliferation
same,effect on insulin secretion,[2],"enhance, but not initiate, insulin secretion"
same,effect on the proliferation of NIH-3T3 fibroblast cells (tritiated thymidine uptake),[3],dose dependent effect

# Reference: US20040142393A1, “Methods of use of compounds with preptin function” (priority 2002, published 2004)
